In PubChem BioAssay (NCI):
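Following 48 hours of exposure in 96-well plates, responses at five concentrations were used to interpolate endpoints linearly. GI50 = concentration required for 50% inhibition of growth. TGI: total growth inhibition.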

Key:
Assay in all cases: NCI tumour cell line growth inhibition, 48 h
ACHN renal = test system: ACHN renal
CAKI-1 renal = test system: CAKI-1 renal
M14 melanoma = test system: M14 melanoma
OVCAR-4 ovarian = test system: OVCAR-4 ovarian
RPMI-8226 leukemia = test system: RPMI-8226 leukemia
SK-OV-3 ovarian = test system: SK-OV-3 ovarian
SNB-75 CNS = test system: SNB-75 CNS
SR leukemia = test system: SR leukemia
TK-10 renal = test system: TK-10 renal
UACC-62 melanoma = test system: UACC-62 melanoma

Molecule CCc1cc(Cc2cc(CC)cc(C(C)(C)C)c2O)c(O)c(C(C)(C)C)c1 has a GI50 (ACHN renal) of 3.27 µM, a TGI (ACHN renal) of 10.4 µM and a GI50 (CAKI-1 renal) of 1.92 µM. The TGI (CAKI-1 renal) was 5.75 µM, the GI50 (M14 melanoma) was 3.63 µM and the TGI (M14 melanoma) was 14.4 µM. It also gave a GI50 (OVCAR-4 ovarian) of 3.56 µM, a TGI (OVCAR-4 ovarian) of 12.7 µM and a GI50 (RPMI-8226 leukemia) of 3.35 µM. For the same molecule, the TGI (RPMI-8226 leukemia) was 28.4 µM, the GI50 (SK-OV-3 ovarian) was 3.81 µM and the TGI (SK-OV-3 ovarian) was 13.2 µM. The GI50 (SNB-75 CNS) was 3.37 µM, the TGI (SNB-75 CNS) was 14.1 µM and the GI50 (SR leukemia) was 3.28 µM. For the same molecule, the TGI (SR leukemia) was 18.7 µM, the GI50 (TK-10 renal) was 3.03 µM and the TGI (TK-10 renal) was 9.41 µM. It also gave a GI50 (UACC-62 melanoma) of 2.4 µM and a TGI (UACC-62 melanoma) of 7.85 µM.

Cc1cnc2n(c1=O)Cc1ccccc1CO2 showed a GI50 (ACHN renal) of 17.4 µM, a TGI (ACHN renal) of 33.8 µM and a GI50 (CAKI-1 renal) of 16.9 µM. For the same molecule, the TGI (CAKI-1 renal) was 32.5 µM, the GI50 (M14 melanoma) was 14.5 µM and the TGI (M14 melanoma) was 29.1 µM. The GI50 (OVCAR-4 ovarian) was 22 µM, the TGI (OVCAR-4 ovarian) was 64.1 µM and the GI50 (RPMI-8226 leukemia) was 13.1 µM. For the same molecule, the TGI (RPMI-8226 leukemia) was 41 µM, the GI50 (SK-OV-3 ovarian) was 41 µM and the TGI (SK-OV-3 ovarian) was > 100 µM. For the same molecule, the GI50 (SNB-75 CNS) was 25.3 µM, the TGI (SNB-75 CNS) was > 64 µM and the GI50 (SR leukemia) was 9.11 µM. It also gave a TGI (SR leukemia) of 27.9 µM, a GI50 (TK-10 renal) of 20.9 µM and a TGI (TK-10 renal) of 49.4 µM. For the same molecule, the GI50 (UACC-62 melanoma) was 14.7 µM and the TGI (UACC-62 melanoma) was 28.7 µM.

In the case of COC(=O)c1cccc(COc2ccc([N+](=O)[O-])cc2Cl)c1, the TGI (ACHN renal) is reported as > 100 µM, the TGI (CAKI-1 renal) is reported as > 100 µM and the TGI (M14 melanoma) is reported as > 100 µM. For the same molecule, the TGI (OVCAR-4 ovarian) was > 100 µM, the TGI (RPMI-8226 leukemia) was > 100 µM and the TGI (SK-OV-3 ovarian) was > 100 µM. For the same molecule, the TGI (SNB-75 CNS) was > 100 µM, the TGI (SR leukemia) was > 100 µM and the TGI (TK-10 renal) was > 100 µM. The TGI (UACC-62 melanoma) was > 100 µM.

COc1ccc(/C=C2\CCC(CN(C)C)C2=O)cc1 (stereo not given) gave a TGI (ACHN renal) of 21.3 µM, a TGI (CAKI-1 renal) of 5.05 µM and a TGI (M14 melanoma) of 7.02 µM. The TGI (OVCAR-4 ovarian) was 16.1 µM, the TGI (RPMI-8226 leukemia) was 3.97 µM and the TGI (SK-OV-3 ovarian) was 31.4 µM. The TGI (SNB-75 CNS) was 25.6 µM, the TGI (SR leukemia) was 6.21 µM and the TGI (TK-10 renal) was 14 µM. The TGI (UACC-62 melanoma) was 22.6 µM.

With O=P1(NCCCl)OCCC(OO)N1CCCl (stereo not given) the TGI (ACHN renal) was 33 µM, the TGI (CAKI-1 renal) was 35.9 µM and the TGI (M14 melanoma) was > 57 µM. For the same molecule, the TGI (OVCAR-4 ovarian) was 39.1 µM, the TGI (RPMI-8226 leukemia) was > 100 µM and the TGI (SK-OV-3 ovarian) was > 100 µM. For the same molecule, the TGI (SNB-75 CNS) was 97 µM, the TGI (SR leukemia) was > 100 µM and the TGI (TK-10 renal) was 39.8 µM. The TGI (UACC-62 melanoma) was 63.7 µM.

For CC(NC(=O)C1(N)CCCC1)C(=O)O (stereo not given), the TGI (ACHN renal) was > 100 µM, the TGI (CAKI-1 renal) was > 100 µM and the TGI (M14 melanoma) was > 100 µM. For the same molecule, the TGI (OVCAR-4 ovarian) was > 100 µM, the TGI (RPMI-8226 leukemia) was > 100 µM and the TGI (SK-OV-3 ovarian) was > 100 µM. For the same molecule, the TGI (SNB-75 CNS) was > 100 µM, the TGI (SR leukemia) was > 100 µM and the TGI (TK-10 renal) was > 100 µM. The TGI (UACC-62 melanoma) was > 100 µM.

For OCC1C2C=CC(O2)[C@H]1CO (stereo not given in full), the TGI (ACHN renal) was > 100 µM, the TGI (CAKI-1 renal) was > 100 µM and the TGI (M14 melanoma) was > 100 µM. The TGI (OVCAR-4 ovarian) was > 100 µM, the TGI (RPMI-8226 leukemia) was > 100 µM and the TGI (SK-OV-3 ovarian) was > 100 µM. For the same molecule, the TGI (SNB-75 CNS) was > 100 µM, the TGI (SR leukemia) was > 100 µM and the TGI (TK-10 renal) was > 100 µM. The TGI (UACC-62 melanoma) was > 100 µM.

For COc1ccc2nc3c(cc2c1)C(=O)CC(C(F)(F)F)C3 (stereo not given), the GI50 (ACHN renal) was 1.02 µM, the TGI (ACHN renal) was > 100 µM and the GI50 (CAKI-1 renal) was 0.639 µM. For the same molecule, the TGI (CAKI-1 renal) was > 100 µM, the GI50 (M14 melanoma) was 0.238 µM and the TGI (M14 melanoma) was > 100 µM. For the same molecule, the GI50 (OVCAR-4 ovarian) was 27 µM, the TGI (OVCAR-4 ovarian) was > 100 µM and the GI50 (RPMI-8226 leukemia) was 13.7 µM. For the same molecule, the TGI (RPMI-8226 leukemia) was > 100 µM, the GI50 (SK-OV-3 ovarian) was 4.23 µM and the TGI (SK-OV-3 ovarian) was > 100 µM. For the same molecule, the GI50 (SNB-75 CNS) was 1.04 µM, the TGI (SNB-75 CNS) was > 100 µM and the GI50 (SR leukemia) was 0.262 µM. The TGI (SR leukemia) was > 100 µM, the GI50 (TK-10 renal) was > 84.1 µM and the TGI (TK-10 renal) was > 100 µM. For the same molecule, the GI50 (UACC-62 melanoma) was 0.602 µM and the TGI (UACC-62 melanoma) was > 100 µM.
